Values of other authors, collected in patent US7198928B2, “Human COX-1 alternatively spliced variants and methods of using same” (Allergan, Inc., priority 2003, dated 2007).

How the values were obtained:
[1] = tested on: COX-1; conditions: human iris vs human blood
[2] = humans treated with rofecoxib, in comparison with patients receiving naproxen

## C[C@H](C(=O)O)c1ccc(-c2ccccc2)c(F)c1 [S(+)flurbiprofen]
[1]
  potency of COX-1 inhibition in human iris relative to human blood: 70 fold

## CS(=O)(=O)c1ccc(C2=C(c3ccccc3)C(=O)OC2)cc1 [rofecoxib]
[2]
  thrombotic cardiovascular events: significant increase in thrombotic cardiovascular events
